{"source": "patent US20070203247A1", "about": "“E[…] REGIMENS” (priority 2006, published 2007)", "test_system": "patient experiencing an allergic emergency (anaphylaxis)", "conditions": "no amelioration after approx. 5 minutes, same device, within about five minutes after second dose", "experimental": "Administration of a first and second injectable dosage form comprising an epinephrine solution for the treatment of anaphylaxis\nA patient weighing approximately 15 Kg experiencing an allergic emergency whereupon a caretaker initiates treatment at the onset of shortness of breath by administering to the patient an auto-injection of a first dose of an epinephrine solution comprising 0.1 mg of epinephrine intramuscularly.\nA patient weighing approximately 25 Kg experiencing an allergic emergency initiates treatment at the onset of shortness of breath by self administering a manual injection of a first dose of an epinephrine solution comprising 0.125 mg of epinephrine intramuscularly.\nA patient weighing approximately 90 Kg experiencing an allergic emergency initiates treatment at the onset of shortness of breath by self administering an auto-injection of a first dose of an epinephrine solution comprising 0.6 mg of epinephrine subcutaneously.\nA patient weighing approximately 110 Kg experiencing an allergic emergency initiates treatment at the onset of shortness of breath by self administering an auto-injection of a first dose of an epinephrine solution comprising 0.75 mg of epinephrine intramuscularly.", "note": "Like-named read-outs stand apart in the source and are kept apart here.", "data": [{"compound": "CNC[C@H](O)c1ccc(O)c(O)c1", "note": "[epinephrine]", "values": [{"measurement": "patient's symptoms of anaphylaxis after the second injectable dose", "setting": "Example 1: patient approx. 15 Kg, first dose 0.1 mg auto-injection intramuscularly, second dose 0.15 mg manual intramuscularly", "result": "symptoms of anaphylaxis are relieved or are at an acceptable level for transporting the patient to a physician"}, {"measurement": "patient's symptoms of anaphylaxis after the second injectable dose", "setting": "Example 2: patient approx. 25 Kg, first dose 0.125 mg manual intramuscularly, second dose 0.125 mg manual intramuscularly", "result": "symptoms of anaphylaxis are relieved or are at an acceptable level for transporting the patient to a physician"}, {"measurement": "patient's symptoms of anaphylaxis after the second injectable dose", "setting": "Example 3: patient approx. 90 Kg, first dose 0.6 mg auto-injection subcutaneously, second dose 0.75 mg manual intramuscularly", "result": "symptoms of anaphylaxis are relieved or are at an acceptable level for transporting the patient to a physician"}, {"measurement": "patient's symptoms of anaphylaxis after the second injectable dose", "setting": "Example 4: patient approx. 110 Kg, first dose 0.75 mg auto-injection intramuscularly, second dose 1.0 mg auto-injector intramuscularly", "result": "symptoms of anaphylaxis are relieved or are at an acceptable level for transporting the patient to a physician"}]}]}
